# Patent publication US10144758B2, “Deuterated bile acids” (Metselex, Inc., priority 2013, dated 2018)
# Tested on: primary rat hepatocytes
# Assay: DCA-induced cytotoxicity, LDH release
# Type: cell-based
# Experimental: Primary rat hepatocytes were isolated from male rats (100-150 grams) by collagenase perfusion (as described by Solá S, et al., 2003, Journal of Biological Chemistry 278: 48831-48838)). Briefly, rats were anesthetized with phenobarbital sodium (100 mg/kg body weight) injected into the peritoneal cavity. After administration of heparin (200 units/kg body weight) in the tail vein, the animal's abdomen was opened and the portal vein exposed and cannulated. The liver was then perfused at 37° C. in situ with a calcium-free Hanks' Balanced Salt Solution (HBSS) for about 10 minutes, and then with 0.05% collagenase type IV in calcium-present HBSS for another 10 minutes. Hepatocyte suspensions were obtained by passing collagenase-digested livers through 125 μm gauze and washing cells in Complete William's E medium (William's E medium, Sigma-Aldrich Corp., St Louis, Mo., USA) supplemented with 26 mM sodium bicarbonate, 23 mM HEPES, 0.01 units/mL insulin, 2 mM L-glutamine, 10 nM dexamethasone, 100 units/mL penicillin, and 10% heat-inactivated fetal bovine serum (Invitrogen Corp., Carlsbad, Calif., USA). Viable primary rat hepatocytes were enriched by low-speed centrifugation at 200 g for 3 minutes. Cell viability was determined by trypan blue exclusion and was typically 80-85%. After isolation, hepatocytes were resuspended in Complete William's E medium and plated on PrimariaTM tissue culture dishes (BD Biosciences, San Jose, Calif., USA) at 5×10^4 cells/cm^2. Cells were maintained at 37° C. in a humidified atmosphere of 5% CO2 for 6 hours to allow attachment. Plates were then washed with medium to remove dead cells and incubated in Complete William's E medium supplemented with either 100-400 μM UDCA (Sigma-Aldrich Corp.), 100-400 μM deuterated UDCA (compound 5), or no addition (control). Eight hours after pre-incubation, cells were exposed to 1 nM recombinant human TGF-β1 (R&D Systems Inc., Minneapolis, Minn., USA) for 36 hours, or to 50 or 100 μM DCA for 16 hours before processing for cell viability, cytotoxicity and apoptosis assays. The ApoTox-GloTM Triplex Assay (Promega Corp., Madison, Wis., USA) was used to evaluate cell viability, cytotoxicity and caspase-3/7 activity, according to the manufacturer's protocol, using a GloMax+ Multi Detection System (Promega Corp.). General cell death was also evaluated using the lactate dehydrogenase (LDH) Cytotoxicity Detection Kit^PLUS (Roche Diagnostics GmbH, Mannheim, Germany), following the manufacturer's instructions. FIG. 7 illustrates that Compound 5 prevents DCA-induced cytotoxicity and apoptosis in primary rat hepatocytes. […] Results are expressed as means±SEM of at least three experiments. *p<0.01 from control; § p<0.05 and †p<0.01 from respective DCA.
Compound,"inhibition of DCA-induced LDH release (50 μM DCA 16 hours, 100 μM compound pre-incubated 8 hours, FIG. 7A) [%]","protective effect on LDH release greater than UDCA (50 μM DCA, Compound 5 versus UDCA)","protection against DCA-induced LDH release (100 μM DCA, compared with 50 μM DCA)","inhibition at 100 µM (Rattus norvegicus, Hepatocyte, 50 μM DCA 16 hours, 100 μM compound pre-incubated 8 hours, FIG. 7A) [%]"
"7,8-[^2H]-3α,7α-dihydroxy-5β-cholan-24-oic acid/7-[^2H]-3α,7α-dihydroxy-5β-cholan-24-oic acid [Compound 5]",90,more than 10%,Slightly reduced protection,–
"C[C@H](CCC(=O)O)[C@H]1CC[C@H]2[C@@H]3[C@@H](O)C[C@@H]4C[C@H](O)CC[C@]4(C)[C@H]3CC[C@]12C [UDCA, Ursodeoxycholic acid, reference compound]",–,–,–,70
